Assay results published in patent publication US6914045B2, “Glycopeptide antibiotics” (Wyeth Holdings Corporation, priority 2001, dated 2005).
Values after ≈ are worked out from the molar mass of the structure shown.

Assays:
Assay in all cases: in vitro antibacterial evaluation, MIC by broth dilution
Format in all cases: cell-based
Enterococcus sp. = details: broth dilution, 18 hours at 35° C.
How it was run: (§1)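 MIC, the lowest antibiotic concentration preventing growth, was read across 64-0.06 μg/mL with 5×10^5 CFU/mL inoculum. Method followed NCCLS M7-A2 broth dilution using Mueller-Hinton II; Gram-positive strains covered recent methicillin-, penicillin- and/or vancomycin-resistant clinical isolates.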

Streptococcus sp. = details: broth dilution, 18 hours at 35° C.
How it was run: as §1

Staphylococcus sp. = details: broth dilution, 18 hours at 35° C.; for MIC Staphylococcus aureus (GC 1131): strain GC 1131
How it was run: as §1

Escherichia coli = test system: Escherichia coli
How it was run: as §1

SMILES: Cc1cc(C2OCC3OC(OC4C(CO)OC(Oc5ccc(CC6NC(=O)C(C(C)c7ccccc7)NC(=O)CNC(=O)C(CO)NC(=O)C(C(O)C7CNC(=N)N7C7OC(CO)C(O)C(O)C7O)NC(=O)C(C(O)C7CNC(=N)N7)NC6=O)cc5)C(O)C4O)C(O)C(O)C3O2)ccc1[N+](=O)[O-] (stereo not drawn) [Example 151]
- MIC Enterococcus avium (GC 4558) (Enterococcus sp.; Enterococcus avium (GC 4558)): 32 µg/mL (≈ 22.2 µM)
- MIC Enterococcus faecalis (ATCC 29212) (Enterococcus sp.; Enterococcus faecalis (ATCC 29212)): 32 µg/mL (≈ 22.2 µM)
- MIC Enterococcus faecalis (GC 2242) (Enterococcus sp.; Enterococcus faecalis (GC 2242)): 16 µg/mL (≈ 11.1 µM)
- MIC Enterococcus faecalis (GC 2691) (Enterococcus sp.; Enterococcus faecalis (GC 2691)): 32 µg/mL (≈ 22.2 µM)
- MIC Enterococcus faecalis (GC 3059) (Enterococcus sp.; Enterococcus faecalis (GC 3059)): 32 µg/mL (≈ 22.2 µM)
- MIC Enterococcus faecalis (GC 4552) (Enterococcus sp.; Enterococcus faecalis (GC 4552)): 32 µg/mL (≈ 22.2 µM)
- MIC Enterococcus faecalis (GC 4553) (Enterococcus sp.; Enterococcus faecalis (GC 4553)): 32 µg/mL (≈ 22.2 µM)
- MIC Enterococcus faecalis (GC 4554) (Enterococcus sp.; Enterococcus faecalis (GC 4554)): 32 µg/mL (≈ 22.2 µM)
- MIC Enterococcus faecalis (GC 6189) (Enterococcus sp.; Enterococcus faecalis (GC 6189)): 64 µg/mL (≈ 44.4 µM)
- MIC Enterococcus faecium (GC 2243) (Enterococcus sp.; Enterococcus faecium (GC 2243)): 32 µg/mL (≈ 22.2 µM)
- MIC Enterococcus faecium (GC 4556) (Enterococcus sp.; Enterococcus faecium (GC 4556)): 32 µg/mL (≈ 22.2 µM)
- MIC Enterococcus faecium (GC 4557) (Enterococcus sp.; Enterococcus faecium (GC 4557)): 8 µg/mL (≈ 5.55 µM)
- MIC Enterococcus faecalis (ATCC 29212) (Enterococcus sp.; strain ATCC 29212): 32 µg/mL (≈ 22.2 µM)
- MIC Enterococcus faecalis (GC 2242) (Enterococcus sp.; strain GC 2242): 16 µg/mL (≈ 11.1 µM)
- MIC Enterococcus faecium (GC 2243) (Enterococcus sp.; strain GC 2243): 32 µg/mL (≈ 22.2 µM)
- MIC Enterococcus faecalis (GC 2691) (Enterococcus sp.; strain GC 2691): 32 µg/mL (≈ 22.2 µM)
- MIC Enterococcus faecalis (GC 3059) (Enterococcus sp.; strain GC 3059): 32 µg/mL (≈ 22.2 µM)
- MIC Enterococcus faecalis (GC 4552) (Enterococcus sp.; strain GC 4552): 32 µg/mL (≈ 22.2 µM)
- MIC Enterococcus faecalis (GC 4553) (Enterococcus sp.; strain GC 4553): 32 µg/mL (≈ 22.2 µM)
- MIC Enterococcus faecalis (GC 4554) (Enterococcus sp.; strain GC 4554): 32 µg/mL (≈ 22.2 µM)
- MIC Enterococcus faecium (GC 4556) (Enterococcus sp.; strain GC 4556): 32 µg/mL (≈ 22.2 µM)
- MIC Enterococcus faecium (GC 4557) (Enterococcus sp.; strain GC 4557): 8 µg/mL (≈ 5.55 µM)
- MIC Enterococcus avium (GC 4558) (Enterococcus sp.; strain GC 4558): 32 µg/mL (≈ 22.2 µM)
- MIC Enterococcus faecalis (GC 6189) (Enterococcus sp.; strain GC 6189): 64 µg/mL (≈ 44.4 µM)
- MIC Streptococcus agalactiae (GC 4564) (Streptococcus sp.; Streptococcus agalactiae (GC 4564)): 4 µg/mL (≈ 2.77 µM)
- MIC Streptococcus pneumoniae (ATCC 6301) (Streptococcus sp.; Streptococcus pneumoniae (ATCC 6301)): 1 µg/mL (≈ 0.693 µM)
- MIC Streptococcus pneumoniae (GC 1894) (Streptococcus sp.; Streptococcus pneumoniae (GC 1894)): 0.5 µg/mL (≈ 0.347 µM)
- MIC Streptococcus pneumoniae (GC 4565) (Streptococcus sp.; Streptococcus pneumoniae (GC 4565)): 1 µg/mL (≈ 0.693 µM)
- MIC Streptococcus pyogenes (GC 4563) (Streptococcus sp.; Streptococcus pyogenes (GC 4563)): 2 µg/mL (≈ 1.39 µM)
- MIC Streptococcus pneumoniae (ATCC 6301) (Streptococcus sp.; strain ATCC 6301): 1 µg/mL (≈ 0.693 µM)
- MIC Streptococcus pneumoniae (GC 1894) (Streptococcus sp.; strain GC 1894): 0.5 µg/mL (≈ 0.347 µM)
- MIC Streptococcus pyogenes (GC 4563) (Streptococcus sp.; strain GC 4563): 2 µg/mL (≈ 1.39 µM)
- MIC Streptococcus agalactiae (GC 4564) (Streptococcus sp.; strain GC 4564): 4 µg/mL (≈ 2.77 µM)
- MIC Streptococcus pneumoniae (GC 4565) (Streptococcus sp.; strain GC 4565): 1 µg/mL (≈ 0.693 µM)
- MIC Staphylococcus aureus (GC 1131) (Staphylococcus sp.; inoculum 5×10^5 CFU/mL): 8 µg/mL (≈ 5.55 µM)
- MIC Staphylococcus aureus (ATCC 29213) (Staphylococcus sp.; strain ATCC 29213): 8 µg/mL (≈ 5.55 µM)
- MIC Staphylococcus aureus (GC 1131) (Staphylococcus sp.): 8 µg/mL (≈ 5.55 µM)
- MIC Staphylococcus aureus (GC 3051) (Staphylococcus sp.; strain GC 3051): 8 µg/mL (≈ 5.55 µM)
- MIC Staphylococcus aureus (GC 3053) (Staphylococcus sp.; strain GC 3053): 16 µg/mL (≈ 11.1 µM)
- MIC Staphylococcus aureus (GC 4541) (Staphylococcus sp.; strain GC 4541): 4 µg/mL (≈ 2.77 µM)
- MIC Staphylococcus aureus (GC 4542) (Staphylococcus sp.; strain GC 4542): 8 µg/mL (≈ 5.55 µM)
- MIC Staphylococcus aureus-SMITH (GC 4543) (Staphylococcus sp.; strain GC 4543): 8 µg/mL (≈ 5.55 µM)
- MIC Staphylococcus aureus (GC 4544) (Staphylococcus sp.; strain GC 4544): 8 µg/mL (≈ 5.55 µM)
- MIC Staphylococcus aureus (GC 4545) (Staphylococcus sp.; strain GC 4545): 4 µg/mL (≈ 2.77 µM)
- MIC Staphylococcus haemolyticus (GC 4546) (Staphylococcus sp.; strain GC 4546): 2 µg/mL (≈ 1.39 µM)
- MIC Coagulase Negative Staphylococcus (GC 4547) (Staphylococcus sp.; strain GC 4547): 4 µg/mL (≈ 2.77 µM)
- MIC Coagulase Negative Staphylococcus (GC 4548) (Staphylococcus sp.; strain GC 4548): 4 µg/mL (≈ 2.77 µM)
- MIC Coagulase Negative Staphylococcus (GC 4549) (Staphylococcus sp.; strain GC 4549): 2 µg/mL (≈ 1.39 µM)
- MIC Coagulase Negative Staphylococcus (GC 4551) (Staphylococcus sp.; strain GC 4551): 8 µg/mL (≈ 5.55 µM)
- MIC Coagulase Negative Staphylococcus (GC 6257) (Staphylococcus sp.; strain GC 6257): 2 µg/mL (≈ 1.39 µM)
- MIC Staphylococcus aureus-SMITH (GC 4543) (Staphylococcus sp.; strain SMITH GC 4543): 8 µg/mL (≈ 5.55 µM)
- MIC Escherichia coli (ATCC 25922) (Escherichia coli; strain ATCC 25922, 18 hours at 35° C.): >64 µg/mL
- MIC Escherichia coli (GC 4559) (Escherichia coli; strain GC 4559, 18 hours at 35° C.): >64 µg/mL
- MIC Escherichia coli (GC 4560) (Escherichia coli; strain GC 4560, 18 hours at 35° C.): 2 µg/mL (≈ 1.39 µM)
